Reference: US20150105252A1, “SUBSTITUTED PYRAZOLES AS HERBICIDES” (E I DU PONT DE NEMOURS AND COMPANY, priority 2013, published 2015)

Columns and labels:
corn [1] = experiment: Test A postemergence; type: in vivo, Zea mays
In short: (§1)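 Visual injury ratings, 0 = no effect to 100 = complete control, taken about 10 days after treatment against untreated controls. Test chemicals, in a non-phytotoxic surfactant-containing solvent, were sprayed onto soil preemergence or onto one- to two-leaf plants (2–10 cm) postemergence, in loam–sand soil under greenhouse conditions.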

rice = experiment: Test C flooded paddy test; type: in vivo, Oryza sativa; conditions: Flood
In short: (§2)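 Ratings were visual and made relative to untreated controls after 13 to 15 greenhouse days.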

wheat [2] = experiment: Test A preemergence; type: in vivo, Triticum aestivum; conditions: preemergence
In short: as §1

morningglory [3] = experiment: Test A postemergence; type: in vivo, Ipomoea spp.
In short: as §1

crabgrass, large [4] = experiment: Test A postemergence; type: in vivo, Digitaria sanguinalis
In short: as §1

barnyardgrass [5] = experiment: Test A preemergence; type: in vivo, Echinochloa crus-galli; conditions: 0 to 100 scale
In short: as §1

pigweed [6] = experiment: Test A postemergence; type: in vivo, Amaranthus retroflexus
In short: as §1

pigweed [7] = experiment: Test A preemergence; type: in vivo, Amaranthus retroflexus; conditions: 0 to 100 scale
In short: as §1

velvetleaf [8] = experiment: Test A preemergence; type: in vivo, Abutilon theophrasti; conditions: 0 to 100 scale
In short: as §1

foxtail, giant [9] = experiment: Test A preemergence; type: in vivo, Setaria faberii; conditions: 0 to 100 scale
In short: as §1

wheat [10] = experiment: Test A postemergence; type: in vivo, Triticum aestivum
In short: as §1

velvetleaf [11] = experiment: Test A postemergence; type: in vivo, Abutilon theophrasti
In short: as §1

ducksalad = experiment: Test C flooded paddy test; type: in vivo, Heteranthera limosa; conditions: Flood
In short: as §2

barnyardgrass [12] = experiment: Test A postemergence; type: in vivo, Echinochloa crus-galli; conditions: Postemergence
In short: as §1

corn [13] = experiment: Test A preemergence; type: in vivo, Zea mays; conditions: 0 to 100 scale
In short: as §1

sedge, umbrella = experiment: Test C flooded paddy test; type: in vivo, Cyperus difformis; conditions: Flood
In short: as §2

foxtail, giant [14] = experiment: Test A postemergence; type: in vivo, Setaria faberii
In short: as §1

crabgrass, large [15] = experiment: Test A preemergence; type: in vivo, Digitaria sanguinalis; conditions: 0 to 100 scale
In short: as §1

barnyardgrass [16] = experiment: Test C flooded paddy test; type: in vivo, Echinochloa crus-galli; conditions: Flood
In short: as §2

morningglory [17] = experiment: Test A preemergence; type: in vivo, Ipomoea spp.; conditions: 0 to 100 scale
In short: as §1

[18] = Postemergence, 500 g ai/ha, visual rating after approx. 10 days, 0 to 100 scale (0 no effect, 100 complete control)
[19] = postemergence, 125 g ai/ha, about 10 days, visual rating on 0 to 100 scale (0 no effect, 100 complete control)
[20] = 62 g ai/ha, scale 0 to 100 (0 no effect, 100 complete control)
[21] = Preemergence, 500 g ai/ha, 0 no effect, 100 complete control
[22] = preemergence, 125 g ai/ha, visual injury, approx. 10 days

## CCc1cc(C(=O)NOC(C)(C)CC)nn1Cc1cccc(OC(F)(F)F)c1 [Compound 71]
Corn [1]; [18]
  Corn plant response rating: 50
Corn [1]; [19]
  Corn plant response rating: 30
rice; [20]
  Plant response rating, Rice: 0
rice; 125 g ai/ha, scale 0 to 100
  Plant response rating, Rice: 30
rice; 250 g ai/ha, scale 0 to 100
  Plant response rating, Rice: 45
Wheat [2]; 125 g ai/ha, visual injury, 0 to 100 scale, approx. 10 days
  Wheat plant response rating: 0
Wheat [2]; 500 g ai/ha, visual injury after approx. 10 days, 0 to 100 scale (0 no effect, 100 complete control)
  Wheat plant response rating: 70
Morningglory [3]; [18]
  Morningglory plant response rating: 40
Morningglory [3]; [19]
  Morningglory plant response rating: 40
crabgrass, large [4]; [18]
  Crabgrass, Large plant response rating: 80
crabgrass, large [4]; [19]
  Crabgrass, Large plant response rating: 40
Barnyardgrass [5]; [21]
  Barnyardgrass plant response rating: 80
Barnyardgrass [5]; [22]
  Barnyardgrass plant response rating: 60
Pigweed [6]; [18]
  Pigweed plant response rating: 80
Pigweed [6]; [19]
  Pigweed plant response rating: 40
Pigweed [7]; [21]
  Pigweed plant response rating: 100
Pigweed [7]; [22]
  Pigweed plant response rating: 80
Velvetleaf [8]; [21]
  Velvetleaf plant response rating: 40
Velvetleaf [8]; [22]
  Velvetleaf plant response rating: 30
foxtail, giant [9]; [21]
  Foxtail, Giant plant response rating: 100
foxtail, giant [9]; [22]
  Foxtail, Giant plant response rating: 80
Wheat [10]; [18]
  Wheat plant response rating: 50
Wheat [10]; [19]
  Wheat plant response rating: 30
Velvetleaf [11]; [18]
  Velvetleaf plant response rating: 100
Velvetleaf [11]; [19]
  Velvetleaf plant response rating: 50
ducksalad; [20]
  Plant response rating, Ducksalad: 0
ducksalad; 125 g ai/ha, scale 0 to 100
  Plant response rating, Ducksalad: 0
ducksalad; 250 g ai/ha, scale 0 to 100
  Plant response rating, Ducksalad: 0
Barnyardgrass [12]; 125 g ai/ha, 0 to 100 scale, 0 no effect, 100 complete control
  Barnyardgrass plant response rating: 30
Barnyardgrass [12]; 500 g ai/ha, visual rating after approx. 10 days, 0 to 100 scale (0 no effect, 100 complete control)
  Barnyardgrass plant response rating: 70
Corn [13]; [21]
  Corn plant response rating: 10
Corn [13]; [22]
  Corn plant response rating: 0
sedge, umbrella; [20]
  Plant response rating, Sedge, Umbrella: 70
sedge, umbrella; 125 g ai/ha, scale 0 to 100
  Plant response rating, Sedge, Umbrella: 75
sedge, umbrella; 250 g ai/ha, scale 0 to 100
  Plant response rating, Sedge, Umbrella: 85
foxtail, giant [14]; [18]
  Foxtail, Giant plant response rating: 70
foxtail, giant [14]; [19]
  Foxtail, Giant plant response rating: 40
crabgrass, large [15]; [21]
  Crabgrass, Large plant response rating: 100
crabgrass, large [15]; [22]
  Crabgrass, Large plant response rating: 90
Barnyardgrass [16]; [20]
  Plant response rating, Barnyardgrass: 0
Barnyardgrass [16]; 125 g ai/ha, scale 0 to 100
  Plant response rating, Barnyardgrass: 20
Barnyardgrass [16]; 250 g ai/ha, scale 0 to 100
  Plant response rating, Barnyardgrass: 40
Morningglory [17]; [21]
  Morningglory plant response rating: 50
Morningglory [17]; [22]
  Morningglory plant response rating: 20
